One data set in a line: Pharmacokinetic study. In kind it is in vivo. The following applies: mouse, iv, male ICR mice, 1.8 mg/kg single i.v. tail vein, plasma, UPLC-ESI-QqQ-MS, n = 5. How it is done: The peptides (1.8 mg/kg) were individually dosed in mice intravenously via tail vein injection and the blood samples were collected from the orbital venous plexus at 0, 0.5, 1, 2, 4, 6, 10, 24, and 48 h. All blood samples were centrifuged at 3000 rpm for 10 min, and the obtained plasma samples were immediately frozen at -80 °C until use. The standard curve was established as follows: Stock solutions of PMI-HIF1-1 and SPMI-HIF2-1 dissolved in acetonitrile were spiked into control plasma at final concentrations of 4000, 2000, 1000, 500, 250, 125, 62.5, 31.25, 15.625, 7.8125, 3.90625, 1.953125, and 0.9765625 ng/ml. […] Plasma samples (30 μL) were treated with 90 μL acetonitrile for protein precipitation. Then all samples were vortexed for 2 min and centrifuged for 15 min at 13000 rpm and 4°C. The supernatants were analyzed by ultraperformance liquid chromatography-electrospray ionization-tandem triple quadrupole mass spectrometry (UPLC-ESI-QqQ-MS, Shimadzu 8040). The system was equipped with an XBridge BEH C18 column (2.5 μm, 2.1×100 mm; Waters, Milford, MA, USA). The column temperature was set at 35°C. The injection volume was 4 μl. […] The plasma concentration at each time point was calculated from the extracted peak area of the same mass peaks of each peptide using the corresponding standard curve.

Data set [1] concerns MDM2 and MDMX in HCT116 cells. Description: Western blot of MDM2 and MDMX protein levels. In kind it is cell-based, human. How it is done:
HCT116, MCF-7, or other cells were seeded in six-well plates (4 × 10^5 cells/well) and treated with PROTACs at the indicated concentrations for 24 h. The cells were lysed in RIPA lysis buffer. The protein concentrations were measured using the BCA method and equal amounts of each sample were separated by SDS-PAGE, followed by transfer onto filter membranes. Then, the membranes were blocked and incubated with primary antibodies (Abcam, UK) at 4 °C overnight, followed by incubation with the secondary antibodies. The protein bands were identified using a ChemiDoc MP Imaging System (Bio-Rad, USA).
A general note: In western blotting, separated proteins are transferred to a membrane and probed.

The record followed here is paper PMC9516243, “Design of stapled peptide-based PROTACs for MDM2/MDMX atypical degradation and tumor suppression” (Theranostics, 2022).

Positions of bridges follow the written chain, without caps; N, C: chain ends. Non-standard residues stand in square brackets, D forms with d. Residues, ends and D or L forms follow the SMILES beside them. Hyp = O=C(O)[C@@H]1C[C@@H](O)CN1; R8 = C=CCCCCCC[C@@](C)(N)C(=O)O; hLeu = CC(C)CC[C@H](N)C(=O)O; S5 = C=CCCC[C@](C)(N)C(=O)O; AEA = NCCOCC(=O)O

The term Cmax denotes the maximum level reached in the sampled fluid or tissue. For orientation: AUC(0-inf) means total exposure, with the tail of the curve extrapolated. Read a high AUC(0-inf) as more exposure. By MRT is commonly meant the average time that molecules of a dose stay in the body. For `CC(=O)N[C@H](C(=O)N[C@@H](CO)C(=O)N[C@@H](Cc1ccccc1)C(=O)N[C@]1(C)CCCCCCC=CCCC[C@@](C)(C(=O)NCCOCC(=O)N[C@@H](CC(C)C)C(=O)N[C@@H](C)C(=O)N2C[C@H](O)C[C@H]2C(=O)N[C@@H](Cc2ccc(O)cc2)C(=O)N[C@@H](CCC(C)C)C(=O)N2CCC[C@H]2C(N)=O)NC(=O)[C@H](CC(C)C)NC(=O)[C@H](CC(C)C)NC(=O)[C@H](C)NC(=O)[C@H](Cc2c[nH]c3ccccc23)NC(=O)[C@H](Cc2ccc(O)cc2)NC(=O)[C@H](CCC(=O)O)NC1=O)[C@@H](C)O` [SPMI-HIF2-1] (Ac-TSF[R8]EYWALL[S5][AEA]LA[Hyp]Y[hLeu]P-NH2; staple 4-11), in “Pharmacokinetic study” (mean), the peak concentration (Cmax) stood at 17700 ng/mL. In “Pharmacokinetic study”, this molecule showed a total exposure AUC(0-inf) of 43900 ng·h/mL and a mean residence time MRT of 11.5 h. Moreover, the half-life in “Pharmacokinetic study” (read-out: half-life (t1/2) (converted)) was 9.3 h. Further, in data set [1], the “turning point of atypical degradation of MDM2 and MDMX” value is on record as “approximately 20 μM”.
